Measured values taken from US20260262643A1, “HERBICIDAL BENZOXAZINES” (FMC CORPORATION, priority 2022, published 2026).

Legend:
green foxtail [1] = experiment: Test C preemergence; assay type: in vivo, Setaria viridis
Procedure, shortened: (§1)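 Visual injury ratings on a 0–100 scale (100 = complete control) were made against untreated controls 10 days after treatment in the greenhouse. Compounds, formulated with surfactant in non-phytotoxic solvent, were sprayed on soil preemergence or onto one- to two-leaf plants 2–10 cm tall postemergence.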

ryegrass, Italian [2] = experiment: Test C postemergence; assay type: in vivo, Lolium multiflorum; conditions: 10 days, 0 to 100 scale (0 no effect, 100 complete control)
Procedure, shortened: as §1

soybean [3] = experiment: Test C preemergence; assay type: in vivo, Glycine max
Procedure, shortened: as §1

ragweed [4] = experiment: Test C preemergence; assay type: in vivo, Ambrosia artemisiifolia
Procedure, shortened: as §1

pigweed, palmer [5] = experiment: Test C postemergence; assay type: in vivo, Amaranthus palmeri; conditions: 500 g ai/ha, postemergence, 10 days, 0 to 100 scale (0 no effect, 100 complete control)
Procedure, shortened: as §1

blackgrass [6] = experiment: Test C postemergence; assay type: in vivo, Alopecurus myosuroides; conditions: 10 days, 0 to 100 scale (0 no effect, 100 complete control)
Procedure, shortened: as §1

kochia [7] = experiment: Test C postemergence; assay type: in vivo, Bassia scoparia; conditions: 10 days, 0 to 100 scale (0 no effect, 100 complete control)
Procedure, shortened: as §1

barnyardgrass [8] = experiment: Test C postemergence; assay type: in vivo, Echinochloa crusgalli; conditions: 10 days, 0 to 100 scale (0 no effect, 100 complete control)
Procedure, shortened: as §1

sedge, umbrella = experiment: Test D flooded paddy test; assay type: in vivo, Cyperus difformis; conditions: 250 g ai/ha, applied to paddy water, visual rating after 13 to 14 days, scale 0 to 100 (0 no effect, 100 complete control)
Procedure, shortened: (§2)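 Rating scale 0–100 (0 no effect, 100 complete control), visual, versus controls. Readout at 13–14 days after in-water application to 2-leaf plants in pots flooded 3 cm deep.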

galium = experiment: Test C postemergence; assay type: in vivo, Galium aparine; conditions: 10 days, 0 to 100 scale (0 no effect, 100 complete control)
Procedure, shortened: as §1

corn [9] = experiment: Test C preemergence; assay type: in vivo, Zea mays
Procedure, shortened: as §1

pigweed, palmer [10] = experiment: Test C preemergence; assay type: in vivo, Amaranthus palmeri; conditions: 500 g ai/ha, preemergence; 0 to 100 scale (0 no effect, 100 complete control)
Procedure, shortened: as §1

soybean [11] = experiment: Test C postemergence; assay type: in vivo, Glycine max; conditions: 10 days, 0 to 100 scale (0 no effect, 100 complete control)
Procedure, shortened: as §1

ducksalad = experiment: Test D flooded paddy test; assay type: in vivo, Heteranthera limosa; conditions: 250 g ai/ha, applied to paddy water, visual rating after 13 to 14 days, scale 0 to 100 (0 no effect, 100 complete control)
Procedure, shortened: as §2

rice = experiment: Test D flooded paddy test; assay type: in vivo, Oryza sativa; conditions: 250 g ai/ha, applied to paddy water, visual rating after 13 to 14 days, scale 0 to 100 (0 no effect, 100 complete control)
Procedure, shortened: as §2

corn [12] = experiment: Test C postemergence; assay type: in vivo, Zea mays; conditions: 10 days, 0 to 100 scale (0 no effect, 100 complete control)
Procedure, shortened: as §1

horseweed = experiment: Test C postemergence; assay type: in vivo, Erigeron canadensis; conditions: 10 days, 0 to 100 scale (0 no effect, 100 complete control)
Procedure, shortened: as §1

blackgrass [13] = experiment: Test C preemergence; assay type: in vivo, Alopecurus myosuroides
Procedure, shortened: as §1

wheat [14] = experiment: Test C postemergence; assay type: in vivo, Triticum aestivum; conditions: 10 days, 0 to 100 scale (0 no effect, 100 complete control)
Procedure, shortened: as §1

kochia [15] = experiment: Test C preemergence; assay type: in vivo, Bassia scoparia
Procedure, shortened: as §1

green foxtail [16] = experiment: Test C postemergence; assay type: in vivo, Setaria viridis; conditions: 10 days, 0 to 100 scale (0 no effect, 100 complete control)
Procedure, shortened: as §1

oat, wild [17] = experiment: Test C postemergence; assay type: in vivo, Avena fatua; conditions: 10 days, 0 to 100 scale (0 no effect, 100 complete control)
Procedure, shortened: as §1

barnyardgrass [18] = experiment: Test D flooded paddy test; assay type: in vivo, Echinochloa crus-galli; conditions: 250 g ai/ha, applied to paddy water, visual rating after 13 to 14 days, scale 0 to 100 (0 no effect, 100 complete control)
Procedure, shortened: as §2

ragweed [19] = experiment: Test C postemergence; assay type: in vivo, Ambrosia artemisiifolia; conditions: 10 days, 0 to 100 scale (0 no effect, 100 complete control)
Procedure, shortened: as §1

ryegrass, Italian [20] = experiment: Test C preemergence; assay type: in vivo, Lolium multiflorum; conditions: 500 g ai/ha, preemergence; 0 to 100 scale (0 no effect, 100 complete control)
Procedure, shortened: as §1

barnyardgrass [21] = experiment: Test C preemergence; assay type: in vivo, Echinochloa crusgalli
Procedure, shortened: as §1

oat, wild [22] = experiment: Test C preemergence; assay type: in vivo, Avena fatua
Procedure, shortened: as §1

wheat [23] = experiment: Test C preemergence; assay type: in vivo, Triticum aestivum
Procedure, shortened: as §1

[24] = 500 g ai/ha, preemergence, 0 to 100 scale (0 no effect, 100 complete control)
[25] = Preemergence, 125 g ai/ha, 0 to 100 scale, 0 no effect, 100 complete control

## Cc1ncc(-c2cccc(C(=O)N3C[C@H](C)Oc4c(Cl)cccc43)c2)o1 [Compound 352]
Green foxtail [1]; [24]
  Foxtail, Green plant response rating: 40
Green foxtail [1]; [25]
  Plant response rating, Foxtail, Green: 0
ryegrass, Italian [2]; 500 g ai/ha, postemergence
  Plant response rating, Ryegrass, Italian: 10
ryegrass, Italian [2]; Postemergence, 125 g ai/ha
  Plant response rating, Ryegrass, Italian: 10
Soybean [3]; [24]
  Soybean plant response rating: 0
Soybean [3]; [25]
  Plant response rating, Soybean: 0
Ragweed [4]; [24]
  Ragweed plant response rating: 0
Ragweed [4]; [25]
  Plant response rating, Ragweed: 40
pigweed, palmer [5]
  Plant response rating, Pigweed, Palmer: 20
Blackgrass [6]; 500 g ai/ha, postemergence
  Plant response rating, Blackgrass: 0
Blackgrass [6]; Postemergence, 125 g ai/ha
  Plant response rating, Blackgrass: 0
Kochia [7]; 500 g ai/ha, postemergence
  Plant response rating, Kochia: 50
Kochia [7]; Postemergence, 125 g ai/ha
  Plant response rating, Kochia: 40
Barnyardgrass [8]; 500 g ai/ha, postemergence
  Plant response rating, Barnyardgrass: 10
Barnyardgrass [8]; Postemergence, 125 g ai/ha
  Plant response rating, Barnyardgrass: 10
sedge, umbrella
  Plant response rating, Sedge, Umbrella (Flood): 0
galium; 500 g ai/ha, postemergence
  Plant response rating, Galium: 50
galium; Postemergence, 125 g ai/ha
  Plant response rating, Galium: 60
Corn [9]; [24]
  Corn plant response rating: 0
Corn [9]; [25]
  Plant response rating, Corn: 0
pigweed, palmer [10]
  Pigweed, Palmer plant response rating: 10
Soybean [11]; 500 g ai/ha, postemergence
  Plant response rating, Soybean: 90
Soybean [11]; Postemergence, 125 g ai/ha
  Plant response rating, Soybean: 80
ducksalad
  Plant response rating, Ducksalad (Flood): 0
rice
  Plant response rating, Rice (Flood): 0
Corn [12]; 500 g ai/ha, postemergence
  Plant response rating, Corn: 0
Corn [12]; Postemergence, 125 g ai/ha
  Plant response rating, Corn: 0
horseweed; 500 g ai/ha, postemergence
  Plant response rating, Horseweed: 10
horseweed; Postemergence, 125 g ai/ha
  Plant response rating, Horseweed: 0
Blackgrass [13]; [24]
  Blackgrass plant response rating: 0
Blackgrass [13]; [25]
  Plant response rating, Blackgrass: 0
Wheat [14]; 500 g ai/ha, postemergence
  Plant response rating, Wheat: 10
Wheat [14]; Postemergence, 125 g ai/ha
  Plant response rating, Wheat: 10
Kochia [15]; [24]
  Kochia plant response rating: 0
Kochia [15]; [25]
  Plant response rating, Kochia: 0
Green foxtail [16]; 500 g ai/ha, postemergence
  Plant response rating, Foxtail, Green: 10
Green foxtail [16]; Postemergence, 125 g ai/ha
  Plant response rating, Foxtail, Green: 20
oat, wild [17]; 500 g ai/ha, postemergence
  Plant response rating, Oat, Wild: 0
oat, wild [17]; Postemergence, 125 g ai/ha
  Plant response rating, Oat, Wild: 0
Barnyardgrass [18]
  Plant response rating, Barnyardgrass (Flood): 0
Ragweed [19]; 500 g ai/ha, postemergence
  Plant response rating, Ragweed: 20
Ragweed [19]; Postemergence, 125 g ai/ha
  Plant response rating, Ragweed: 20
ryegrass, Italian [20]
  Ryegrass, Italian plant response rating: 40
Barnyardgrass [21]; [24]
  Barnyardgrass plant response rating: 0
Barnyardgrass [21]; [25]
  Plant response rating, Barnyardgrass: 0
oat, wild [22]; [24]
  Oat, Wild plant response rating: 0
oat, wild [22]; [25]
  Plant response rating, Oat, Wild: 0
Wheat [23]; [24]
  Wheat plant response rating: 0
Wheat [23]; [25]
  Plant response rating, Wheat: 0
